In EP0466548A1, “1,2,3,4,5,6-Hexahydroazepino[4,5-b]indole and 1,2,3,4-tetrahydro-beta-carbolines, processes for their preparation, and pharmaceutical compositions containing them” (ADIR ET COMPAGNIE, priority 1990, dated 1992):

Assays:
rat = assay: Anxiolytic activity: elevated plus maze; type: in vivo; settings: 60 min before test; for nb total d'entrées: 5 min test, control 14 ± 2; for % du temps passé dans le bras ouvert: control 22 % ± 5 %; for % d'entrées dans le bras ouvert: control 28 % ± 5 %
Procedure: Le potentiel anxiolytique de ces produits a été recherché selon le test "elevated plus maze".
Ce test permet d'étudier le comportement du rat, traité ou non, dans une situation de choix entre un espace clos rassurant ("bras clos") et un espace ouvert générateur d'anxiété ("bras ouvert").
Le test consiste à compter le nombre d'entrées dans chaque bras du labyrinthe durant 5 minutes et à mesurer le temps passé dans le "bras ouvert".
Les rats sont randomisés en lots de 8 et reçoivent les produits à tester par administration intrapéritonéale 60 minutes avant le début du test.

[1] = test system: rats mâles, Sprague Dawley; assay: Anti-inflammatory activity: carrageenan-induced paw oedema (plethysmography); type: in vivo, rat; settings: 30 to 60 min before carrageenan, paw volume 3 h after carrageenan
Procedure: Le potentiel antiinflammatoire des composés a été recherché selon un modèle d'inflammation aigue provoquée par injection sous cutanée de carragénine au niveau de la patte postérieure du rat selon une technique inspirée de WINTER et coll. […] J. Phamacol.
Les rats mâles, Sprague Dawley de 200 à 300 g sont randomisés en lots de 10 et reçoivent les substances à tester par administration intra péritonéale 30 à 60 minutes avant l'injection locale au niveau de la patte arrière gauche de 0,1 ml d'une suspension à 0,5 % de Carragénine dans du sérum physiologique stérile.
La patte arrière droite servant de témoin, reçoit une injection de sérum physiologique.
Trois heures après l'injection de la Carragénine, les animaux sont anesthésiés de façon profonde au Narcorem R et le volume des deux pattes arrières mesuré par Pléthysmographie
Les résultats sont exprimés en pourcentage de variation de volume v% : v% =(volume patte gauche - volume patte droite)/(volume patte droite) [formula] l'activité antiinflammatoire AAI% est définie par : [drawing 54]

souris = assay: Analgesic activity: Acetic Acid Writhing test; type: in vivo; settings: 50 mg/Kg intraperitoneal, 30 min before 0,3 cm³ acetic acid 1% i.p.; control 23 ± 14
Procedure: Le potentiel analgésique de ces produits a été recherché selon le test dit "Acetic Acid Writhing" qui est basé sur le comptage des crampes abdominales induites chez la souris par injection intra péritonéale d'acide acétique (GAIRIN et Coll J. Pharmacol. Exp. Ther 245, 955 (1988))
Les souris randomisées en lots de 10 reçoivent les produits à tester par voie intra péritonéale 30 minutes avant l'administration intra péritonéale de 0,3 cm³ d'acide acétique à 1%
Le nombre de crampes est compté entre la 5ème et 20ème minutes après l'injection d'acide acétique.

COC(=O)[C@@H]1Cc2c([nH]c3ccccc23)C2(CCN(C)CC2)N1 [[ 3-METHOXYCARBONYLE 1,2,3,4-TETRAHYDRO-β-CARBOLINE (3 S)]-1-SPIRO-4′- [ 1-METHYL PIPERIDINE]]
nb total d'entrées (rat; 100mg/Kg IP): 18 ± 1
% du temps passé dans le bras ouvert (rat; 100mg/Kg IP): 41 % ± 4%
% d'entrées dans le bras ouvert (rat; 100mg/Kg IP): 44 % ± 3%
AAI% ([1]; 25 mg/Kg intraperitoneal): 14%

COC(=O)[C@@H]1Cc2c([nH]c3ccccc23)C2(CCCCC2)N1 [[ 3-METHOXYCARBONYLE 1,2,3,4-TETRAHYDRO-β-CARBOLINE (3 S)]-1-SPIRO-CYCLOHEXANE]
Nombre de crampes par minute (entre la 5ème et la 20ème minutes) (souris): 1 ± 1
nb total d'entrées (rat; 50 mg/Kg IP): 18 ± 2
% du temps passé dans le bras ouvert (rat; 50 mg/Kg IP): 40 % ± 6%
% d'entrées dans le bras ouvert (rat; 50 mg/Kg IP): 42 % ± 4%
AAI% ([1]; 50 mg/Kg intraperitoneal): 14%
